The subject of test [1] is Plasmodium berghei. The experiment in a line: Antimalarial activity against Plasmodium berghei ANKA infected in po dosed mouse. The test is classed as functional.
The test system of test [2] is Plasmodium falciparum. The experiment in a line: Antimalarial activity against Plasmodium falciparum 3D7. In kind it is functional, organism-based.
Test [3] deals with Plasmodium yoelii. The experiment in a line: Antimalarial activity against Plasmodium yoelii infected in mouse. The test is classed as functional.
In test [4] the test system is Plasmodium falciparum. The experiment in a line: Antimalarial activity against Plasmodium falciparum K1. The test is classed as functional, organism-based.
Test [5] has as its system Plasmodium berghei. The experiment in a line: Antimalarial activity against Plasmodium berghei K173 infected in mouse. In kind it is functional.
Test [6] concerns Plasmodium falciparum. The experiment in a line: Antimalarial activity against Plasmodium falciparum RKL9. The test is classed as functional, organism-based.
The subject of test [7] is Plasmodium falciparum. The experiment in a line: Antimalarial activity against late blood stage Plasmodium falciparum NF54 gametocytes. In kind it is functional, organism-based.
Test [8] deals with Plasmodium falciparum. The experiment in a line: Antimalarial activity against chloroquine-sensitive Plasmodium falciparum HB3. In kind it is functional, organism-based.
The subject of test [9] is Plasmodium falciparum. The experiment in a line: Antimalarial activity against chloroquine-resistant Plasmodium falciparum K1. In kind it is functional, organism-based.
Test [10] has as its system Plasmodium berghei. The experiment in a line: Antimalarial activity against Plasmodium berghei infected in mouse. In kind it is functional. The conditions noted are these: Plasmodium berghei.
Test [11] relates to Plasmodium falciparum. The experiment in a line: Antimalarial activity against Plasmodium falciparum NF54. The test is classed as functional, organism-based.
For test [12], the system named is Plasmodium falciparum. The experiment in a line: Antimalarial activity against Plasmodium falciparum W2. The test is classed as functional, organism-based.
In test [13] the test system is Plasmodium berghei. The experiment in a line: Antimalarial activity against Plasmodium berghei infected in po dosed mouse. The test is classed as functional.
For test [14], the system named is Plasmodium falciparum. The experiment in a line: Antimalarial activity against Plasmodium falciparum Dd2. In kind it is functional, organism-based.
Test [15] relates to Plasmodium berghei. The experiment in a line: Antimalarial activity against Plasmodium berghei infected in sc dosed mouse. The test is classed as functional. The following applies: Plasmodium berghei.

In test [1] (Plasmodium berghei, ANKA), `CN1CCN(C2CCN(C(=O)CC3CCC4(CC3)OOC3(OO4)C4CC5CC(C4)CC3C5)CC2)CC1` (stereo not drawn) gave an ED90 of 4.18 mg/kg. In addition, in test [1] (Plasmodium berghei, ANKA, read-out: ED50), the ED50 (usually the dose at which the effect has come halfway, by size or by number of responders) was determined as 1.33 mg/kg. In test [2], the IC50 (as a rule, the concentration that gives 50% inhibition) came out at 0.8 nM.
`CC1CC2CCC(C1)[C@@](C)(/C=C/[C@H](O)C(C)(C)O)OO2` (stereo partly drawn) gave an ED50 in test [3] of 50 mg/kg. Besides, in [4], the IC50 came out at 115 nM.
Consider `C[C@@H]1CC[C@H]2[C@@H](C)C(Nc3ccc(Cl)cc3)O[C@@H]3O[C@]4(C)CC[C@@H]1[C@]32OO4` (stereo partly drawn), for which the SD50 in test [5] was 1.77 mg/kg/day.
`CCN(Cc1cc(C2(C)OOC(c3ccccc3O)OO2)ccc1O)c1ccccc1` (stereo not drawn): the IC50 in test [6] is 5.3 µg/mL.
Turning to `C[C@H]1[C@H](N2CCN(S(=O)(=O)c3cccc(C(F)(F)F)c3)CC2)O[C@@H]2O[C@]3(C)CC[C@H]4[C@H](C)CC[C@@H]1[C@@]24OO3`, in test [7], the IC50 amounted to 0.4 nM.
Take `CCN(CC)Cc1ccc(CO[C@H]2O[C@@H]3O[C@]4(C)CC[C@H]5[C@H](C)CC[C@@H]([C@H]2C)[C@@]35OO4)cc1`: the IC50 came out at 3.1 nM in test [8] and 1.4 nM in test [9].
The compound `C[C@@H]1CC[C@H]2[C@@H](C)C(Nc3cccc(Cl)c3)O[C@@H]3O[C@]4(C)CC[C@@H]1[C@]32OO4` (stereo partly drawn) registered an SD50 in [5] of 1.62 mg/kg/day.
Compound `CC1CC2CCC(C1)[C@@](C)(/C=C/[C@@H](O)C(C)(C)O)OO2` (stereo partly drawn) displayed an ED50 in test [3] of 95 mg/kg. Moreover, the IC50 in test [4] came out at 56 nM.
Regarding `C[C@H]1[C@@H](OCc2ccc(CN3CCCC3)cc2)O[C@@H]2O[C@]3(C)CC[C@H]4[C@H](C)CC[C@@H]1[C@@]24OO3`, the IC50 in test [8] and in test [9] was 2.3 nM throughout.
Consider `CO[C@H]1O[C@@H]2O[C@@]3(C)CC[C@H]4[C@H](C)CC[C@@H]([C@H]1C)[C@@]24OO3`, for which the ED50 in [1] is 10.57 mg/kg; in test [10], 6 mg/kg. The IC50 in test [11] came to 2 nM; in test [4], 9 nM; in [12] it was 7 nM.
In turn, `CCO[C@H]1O[C@@H]2O[C@]3(C)CC[C@H]4[C@H](C)CC[C@@H]([C@H]1C)[C@@]24OO3` gave an ED90 in [13] of 6 mg/kg.
`C[C@H]1[C@H](NS(=O)(=O)N2CCN(c3ccccn3)CC2)O[C@@H]2O[C@]3(C)CC[C@H]4[C@H](C)CC[C@@H]1[C@@]24OO3` registered an IC50 in [7] of 0.04 nM.
For `C[C@H]1[C@H](N2CCN(C(=O)Nc3ccc(C(F)(F)F)cc3)CC2)O[C@@H]2O[C@]3(C)CC[C@H]4[C@H](C)CC[C@@H]1[C@@]24OO3`, the IC50 in test [7] came out at 0.6 nM; in [14], 12.2 nM; in test [11], 1.83 nM; in test [4] it was 1.12 nM.
With `C[C@H]1[C@@H](CCN2CCN(c3cccc(C(F)(F)F)c3)CC2)O[C@@H]2O[C@]3(C)CC[C@H]4[C@H](C)CC[C@@H]1[C@@]24OO3`, the ED90 in [3] is less than 10 mg/kg.
For the compound `COc1cc(C2OOC3(C)C=CC(=O)CC3O2)ccc1O` (stereo not drawn), the results for the IC50 in test [2] and in test [6] were 1240 nM and 1060 nM, respectively.
In the case of `C[C@H]1[C@@H](CCOCc2cccc(F)c2)O[C@@H]2O[C@]3(C)CC[C@H]4[C@H](C)CC[C@@H]1[C@@]24OO3`, the ED50 in [10] is 5.08 mg/kg. Besides, the IC50 in [8] is 0.35 nM; in test [9] it was 3.78 nM.
As for `CC1(c2ccccc2)OOC(c2ccccc2)(c2ccccc2)OO1`, half-maximal inhibition in [6] (IC50) was put at 3.91 µg/mL.
`CC12C=CC(=O)CC1OC(c1c[nH]c3ccccc13)OO2` (stereo not drawn): the half-maximal inhibitory concentration (IC50) in [2] amounted to 1240 nM; in test [6], 1170 nM.
For `CCN(Cc1cc(C2(C)OOC(c3c[nH]c4ccccc34)OO2)ccc1O)c1ccccc1` (stereo not drawn), 8.19 µg/mL corresponded to half-maximal inhibition in test [6] (IC50).
`C[C@H]1[C@H](c2cccn2C)O[C@@H]2O[C@]3(C)CC[C@H]4[C@H](C)CC[C@@H]1[C@@]24OO3` showed an ED50 in test [15] of 0.7 mg/kg. The compound also registered an ED90 in [13] of 8.5 mg/kg.
As to `C[C@H]1[C@H](N2CCN(C(=O)c3ccc(F)cc3)CC2)O[C@@H]2O[C@]3(C)CC[C@H]4[C@H](C)CC[C@@H]1[C@@]24OO3`, the IC50 came out at 0.6 nM in [7], 1.5 nM in [14], 1.06 nM in test [11] and 2.1 nM in test [4].
Take `C[C@@H]1CC[C@H]2[C@@H](C)C(Nc3ccc(C(=O)O)cc3)O[C@@H]3O[C@]4(C)CC[C@@H]1[C@]32OO4` (stereo partly drawn): the SD50 in [5] was 1.36 mg/kg/day.

These data come from ChEMBL document CHEMBL5244272 (Eur J Med Chem, 2021).
